Results from patent US20240327372A1, “PREPARATION OF PHENE[…] […] STEREOISOMERS THEREOF AND PRECURSORS THEREOF” (priority 2022, published 2024).
Where a name gives a salt, the structure may show the parent alone.

Columns and labels:
hKir2.1 = hKir2.1 (Homo sapiens (Human), UniProt P63252); format: cell-based
Protocol: (§1) Electrophysiological assays were conducted to profile three compounds ((R)-methylone, (S)-methylone, or racemic methylone) for activities on the ion channel targets specified below using the Qube electrophysiological platform. Where presented, IC50 values were determined by a non-linear, least squares regression analysis. Reference standards were run as an integral part of each assay to ensure the validity of the results obtained.
(§2) Ion Channels tested were Eurofins Panel Part Number: CPROFullQB2DR Voltage-Gated Sodium: HEK-Nav1.5 (Peak), HEK-Nav1.5 (Late, Antagonist) Voltage-Gated Potassium: HEK-Kv4.3/KChIP2, CHO-hERG, CHO-KCNQ1/minK Voltage-Gated Calcium: HEK-Cav1.2 Inward-Rectifying Voltage-Gated Potassium: HEK-Kir2.1.
hKir2.1 Potassium Channel Assay—Qube APC After whole cell configuration is achieved, the cells are held at −30 mV. Kir2.1 currents are evoked by a single 500 ms pulse to −120 mV before returning to the holding potential of −30 mV. This paradigm is delivered once every 20 s to monitor the current amplitude.

hKv4.3/hKChIP2 = hKv4.3/hKChIP2 (Homo sapiens (Human), UniProt Q9UK17); assay: hKv4.3/hKChIP2 Potassium Channel Assay, Qube APC; format: cell-based
Protocol: as §1, §2
hKv4.3/hKChIP2 Potassium Channel Assay—Qube APC After whole cell configuration is achieved, the cells are held at −80 mV. Onset and steady state block of hKv4.3 current is measured using a pulse pattern from −80 mV to 40 mV amplitude for a 110 ms duration, and finally a 100 ms ramp (1.2 V/s) to −80 mV. This paradigm is delivered once every 5 s to monitor the current amplitude.

hKCNQ1/hminK = hKCNQ1/hminK (Homo sapiens (Human), UniProt P51787); assay: hKCNQ1/hminK Potassium Channel Assay, Qube APC; format: cell-based; details: KCNQ1/mink
Protocol: as §1, §2
hKCNQ1/hminK Potassium Channel Assay—Qube APC After whole cell configuration is achieved, the cells are held at −80 mV. KCNQ1/minK currents are evoked by a 1000 ms pulse from −80 mV to 60 mV followed by a ramp from 60 mV to −80 mV over 115 ms with the outward peak currents measured upon depolarization of the cell membrane. This paradigm is delivered once every 15 s to monitor the current amplitude.

hNav1.5 = hNav1.5 (Homo sapiens (Human), UniProt Q14524); assay: hNav1.5 Sodium Channel Assay (peak), Qube APC; format: cell-based; details: Nav1.5, Antagonist mode, test compound
Protocol: (§3) Where presented, IC50 values were determined by a non-linear, least squares regression analysis.
(§4) Recombinant HEK-293 cells stably transfected with human Nav1.5 cDNA, recombinant HEK293 cell line expressing the human Cav1.2 (L-type voltage gated calcium channel, hCav1.2 α1C/β2a/α2δ1, and recombinant CHO-K1 cells stably transfected with human hERG cDNA were used separately in each of these assays.
hNav1.5 Sodium Channel Assay—Qube APC Onset and steady state block of peak Nav1.5 current is measured using a pulse pattern, repeated every 5 sec, consisting of a hyperpolarizing pulse to −120 mV for a 200 ms duration, depolarization to −15 mV amplitude for a 40 ms duration, followed by step to 40 mV for 200 ms and finally a 100 ms ramp (1.2 V/s) to a holding potential of −80 mV. Peak current is measured during the step to −15 mV.

hCav1.2 = hCav1.2 (Homo sapiens (Human), UniProt Q13936); assay: hCav1.2 (L-type) Calcium Channel Assay, Qube APC; format: cell-based; details: Cav1.2, Antagonist mode, test compound
Protocol: as §3, §4
hCav1.2 (L-type) Calcium Channel Assay—Qube APC After whole cell configuration is achieved, the cells are held at −90 mV. Cav1.2 currents are evoked by a 50 ms pulse to −100 mV followed by a 200 ms pulse to +20 mV before returning to the holding potential of −90 mV. This paradigm is delivered three times every 60 s to monitor the current amplitude.

hNav1.5 Late Current = hNav1.5 Late Current (Homo sapiens (Human), UniProt Q14524); assay: hNav1.5 Late Current Sodium Channel Assay, Qube APC; format: cell-based; details: Nav1.5 Late Current, Antagonist mode, test compound
Protocol: as §1, §2
hNav1.5 Late Current Sodium Channel Assay—Qube APC Onset and steady state block of Late Nav1.5 current is measured using a pulse pattern, repeated every 5 sec, consisting of a hyperpolarizing pulse to −120 mV for a 200 ms duration, depolarization to −15 mV amplitude for a 40 ms duration, followed by step to 40 mV for 200 ms and finally a 100 ms ramp (1.2 V/s) to a holding potential of −80 mV. Late current is measured as charge current elicited during the ramp with 50 nM ATXII.

[1] = Dynamic vapor sorption (DVS); format: physicochemical
Protocol: (§5) Two lots of methylone HCl samples were submitted to evaluate the stability of the solid forms under various humidity conditions. Dynamic vapor sorption (DVS) analysis was performed to evaluate the kinetic hygroscopicity and assess if variable humidity XRPD would be necessary, as well as to determine the appropriate humidity condition(s) for such XRPD analysis. Both pre- and post-DVS samples were analyzed by conventional XRPD for solid form confirmation or any potential form changes.
DVS analyses were carried out using a TA Instruments Q5000 Dynamic Vapor Sorption analyzer. The instrument was calibrated with standard weights and a sodium bromide standard for humidity. Approximately 12-13 mg of each powder sample was loaded into a metal-coated quartz pan for analysis. The samples were analyzed from 5 to 95% RH (adsorption cycle) and from 95 to 5% RH (desorption cycle) in 10% RH steps. The movement from one step to the next occurred either after satisfying the equilibrium criterion of 0.01% weight change in 5 minutes or, if the equilibrium criterion was not met, after 90 minutes. The percent weight change values were calculated using Microsoft EXCEL® 2016.

[2] = XRPD of pre- and post-DVS samples (form stability); format: physicochemical; details: pre- versus post-DVS
Protocol: as §5
The XRPD patterns between the pre- and post-DVS samples were compared for lots 213220 and KRR-R&D-2022-II-58, respectively.
Each sample was prepared in a silicon low background holder using light manual pressure to keep the sample surface flat and level with the reference surface of the sample holder. The single crystal Si low background holder has a circular recess (10 mm diameter and about 0.2 mm depth) that holds the sample. The Rigaku Smart-Lab diffraction system used was configured for Bragg-Brentano reflection geometry using a line source X-ray beam. The Bragg-Brentano geometry was controlled by passive divergence and receiving slits with the sample itself acting as the focusing component for the optics.

Chain of hKv4.3/hKChIP2 (Q9UK17 whole entry, looked up): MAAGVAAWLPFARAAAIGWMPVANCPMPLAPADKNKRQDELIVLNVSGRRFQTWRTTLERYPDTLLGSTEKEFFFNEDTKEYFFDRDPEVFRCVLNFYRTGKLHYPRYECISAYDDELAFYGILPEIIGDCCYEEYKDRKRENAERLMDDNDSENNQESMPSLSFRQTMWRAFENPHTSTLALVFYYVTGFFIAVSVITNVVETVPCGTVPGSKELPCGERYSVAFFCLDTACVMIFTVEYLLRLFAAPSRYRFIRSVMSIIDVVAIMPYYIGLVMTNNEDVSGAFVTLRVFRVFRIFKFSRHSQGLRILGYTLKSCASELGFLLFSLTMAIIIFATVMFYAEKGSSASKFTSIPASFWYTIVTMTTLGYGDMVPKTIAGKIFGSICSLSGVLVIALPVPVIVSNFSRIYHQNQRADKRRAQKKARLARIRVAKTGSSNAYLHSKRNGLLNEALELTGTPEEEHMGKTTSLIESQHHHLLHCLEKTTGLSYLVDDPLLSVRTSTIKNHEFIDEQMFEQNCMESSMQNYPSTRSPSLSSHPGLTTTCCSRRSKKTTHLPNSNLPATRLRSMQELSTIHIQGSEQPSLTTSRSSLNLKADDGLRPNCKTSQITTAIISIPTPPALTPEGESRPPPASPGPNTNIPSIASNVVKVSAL
Chain of hKv4.3/hKChIP2 (Q9NS61 whole entry partner, looked up): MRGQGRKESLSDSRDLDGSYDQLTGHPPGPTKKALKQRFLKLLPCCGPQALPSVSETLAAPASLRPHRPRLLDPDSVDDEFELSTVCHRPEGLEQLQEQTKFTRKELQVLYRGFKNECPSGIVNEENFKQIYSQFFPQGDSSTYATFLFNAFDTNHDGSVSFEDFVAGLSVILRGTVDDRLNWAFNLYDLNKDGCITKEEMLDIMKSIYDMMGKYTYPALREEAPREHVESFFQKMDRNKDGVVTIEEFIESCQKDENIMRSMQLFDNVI
Chain of hKir2.1 (P63252 whole entry): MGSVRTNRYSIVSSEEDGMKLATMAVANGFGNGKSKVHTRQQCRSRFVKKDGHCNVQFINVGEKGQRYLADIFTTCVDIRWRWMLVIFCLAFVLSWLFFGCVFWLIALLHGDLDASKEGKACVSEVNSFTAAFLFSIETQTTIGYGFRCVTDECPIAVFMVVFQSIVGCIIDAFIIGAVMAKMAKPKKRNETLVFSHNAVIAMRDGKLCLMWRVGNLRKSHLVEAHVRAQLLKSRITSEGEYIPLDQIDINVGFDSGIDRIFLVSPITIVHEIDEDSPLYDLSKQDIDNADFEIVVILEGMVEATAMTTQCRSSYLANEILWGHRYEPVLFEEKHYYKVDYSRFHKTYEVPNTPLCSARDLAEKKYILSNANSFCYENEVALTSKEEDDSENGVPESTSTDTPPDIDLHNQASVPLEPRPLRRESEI

[Ba+2].[Cl-].[Cl-] [Barium Chloride]
IC50 (hKir2.1; Kir2.1, reference compound, read-out: Estimated IC50): 14.4 µM

O=C(NCC1CCCCN1)c1cc(OCC(F)(F)F)ccc1OCC(F)(F)F (centres unmarked) [Flecainide]
IC50 (hKv4.3/hKChIP2; Kc4.3/ChIP2, reference compound, read-out: Estimated IC50): 19.5 µM

CCS(=O)(=O)N(C)[C@H]1c2cc(C#N)ccc2OC(C)(C)[C@@H]1O (racemic) [Chromanol 293B]
IC50 (hKCNQ1/hminK; reference compound, read-out: Estimated IC50): 45.3 µM

CNC(C)C(=O)c1ccc2c(c1)OCO2 (centres unmarked) [Methylone HCl, methylone HCl]
Estimated IC50 (hNav1.5): N/C (N/C indicates observed mean inhibition was <25%) | Estimated IC50 (hKv4.3/hKChIP2; Kc4.3/ChIP2, Antagonist mode, test compound): N/C (N/C indicates observed mean inhibition was <25%) | Estimated IC50 (hCav1.2): N/C (N/C indicates observed mean inhibition was <25%) | Estimated IC50 (hNav1.5 Late Current): N/C (N/C indicates observed mean inhibition was <25%) | Estimated IC50 (hKCNQ1/hminK; Antagonist mode, test compound): N/C (N/C indicates observed mean inhibition was <25%) | Estimated IC50 (hKir2.1; Kir2.1, Antagonist mode, test compound): N/C (N/C indicates observed mean inhibition was <25%)

CNC(C)C(=O)c1ccc2c(c1)OCO2.Cl [lot KRR-R&D-2022-II-58, methylone HCl]
Adsorbed water retained upon desorption [1]: approximately 0.06% | Hysteresis upon desorption [1]: slight hysteresis | Form changes of post-DVS samples (XRPD) [2]: No form changes

CNC(C)C(=O)c1ccc2c(c1)OCO2 (centres unmarked) [Lot 213220, methylone HCl]
Hysteresis upon desorption [1]: little to no hysteresis | Form changes of post-DVS samples (XRPD) [2]: No form changes
